Article PMC6271338, “Synthesis and Cytotoxic Evaluation of Alkoxylated Chalcones” (Molecules, 2014)
Values joined by “and” are separate entries in the source; they are usually repeats but may differ in a detail not shown here. Equal values may be shown once.

Key:
HepG2 cells = assay: In vitro anti-proliferative SRB assay, HepG2; format: cell-based, human; conditions: for IC50: Homo sapiens, HepG2, increasing concentrations up to 30 μM, mean ± SD of at least three independent experiments; for SI (CC50 HMLE/IC50 HepG2) / SI (CC50 L02/IC50 HepG2): selectivity index; for SI (CC50 HMLE/IC50 HepG2): HMLE vs HepG2; for SI (CC50 L02/IC50 HepG2): L02 vs HepG2
A549 cells = assay: In vitro anti-proliferative SRB assay, A549; format: cell-based, human; conditions: for IC50: Homo sapiens, A549, increasing concentrations up to 30 μM, mean ± SD of at least three independent experiments; for SI (CC50 HMLE/IC50 A549) / SI (CC50 L02/IC50 A549): selectivity index; for SI (CC50 HMLE/IC50 A549): HMLE vs A549; for SI (CC50 L02/IC50 A549): L02 vs A549
SW1990 cells = assay: In vitro anti-proliferative SRB assay, SW1990; format: cell-based, human; conditions: for IC50: Homo sapiens, SW1990, increasing concentrations up to 30 μM, mean ± SD of at least three independent experiments; for SI (CC50 HMLE/IC50 SW1990) / SI (CC50 L02/IC50 SW1990): selectivity index; for SI (CC50 HMLE/IC50 SW1990): HMLE vs SW1990; for SI (CC50 L02/IC50 SW1990): L02 vs SW1990
[1] = Cytotoxicity (SRB) against non-tumoral HMLE cells; format: cell-based, human; conditions: human, HMLE cells (non-tumoral human mammary epithelial cells); increasing concentrations up to 100 μM; mean ± SD of at least three independent experiments; read-out: Normal Human Cell Lines, CC50, HMLE
MCF-7 cells = assay: In vitro anti-proliferative SRB assay, MCF-7; format: cell-based, human; conditions: for IC50: Homo sapiens, MCF7, increasing concentrations up to 30 μM, mean ± SD of at least three independent experiments; for SI (CC50 HMLE/IC50 MCF7) / SI (CC50 L02/IC50 MCF7): selectivity index; for SI (CC50 HMLE/IC50 MCF7): HMLE vs MCF7; for SI (CC50 L02/IC50 MCF7): L02 vs MCF7
HeLa cells = assay: In vitro anti-proliferative SRB assay, HeLa; format: cell-based, human; conditions: for IC50: Homo sapiens, HeLa, increasing concentrations up to 30 μM, mean ± SD of at least three independent experiments; for SI (CC50 HMLE/IC50 Hela) / SI (CC50 L02/IC50 Hela): selectivity index; for SI (CC50 HMLE/IC50 Hela): HMLE vs HeLa; for SI (CC50 L02/IC50 Hela): L02 vs HeLa
[2] = system: five human cancer cell lines (HepG2, HeLa, MCF-7, A549 and SW1990); assay: In vitro anti-proliferative SRB assay, summary statements over the five-line panel; format: cell-based; conditions: most of their in vitro IC50 values against the five human cancer lines
Description: With a aim of identifying potential anticancer agents with enhanced levels of activity, as well as verifying the conclusions provided above, we took a14 as a starting compound, and then designed and synthesized a series of chalcones b1–42 bearing methoxy groups at the 2' and 6'-positions of the B-ring, whilst varying the substituents on the A-ring. The cytotoxicities of the resulting chalcones were evaluated in vitro against five human cancer cell lines and other two non-tumoral cell lines, including HepG2, HeLa, MCF-7, A549, SW1990, HMLE and L02, and the results are shown in Table 2.
HepG2 and MCF7 cells were grown in the Eagle’s minimum essential medium with Earle’s balanced salts (MEM-EBSS) medium, HeLa, A549 and L02 cells were grown in Dulbecco’s Modified Eagle Media (DMEM), SW1990 cells were grown in RPMI-1640 medium, and HMLE cell were grown in DMEM/F-12 medium. The media were supplemented with 100 U/mL penicillin, […] streptomycin and 10% fetal bovine serum (FBS), and incubated at 37 °C in a humidified atmosphere containing 5% CO2.
Cells were seeded into 96-well plates (4000 cells/well) and incubated at 37 °C in a humidified 5% CO2 atmosphere. After 24 h, the cells were treated with different concentrations of the compounds for 48 h in triplicate to generate dose-response curves. Cell viability was evaluated using the sulforhodamine B (SRB) assay as previous described. […] Etoposide was used as the positive control.

[3] = Cytotoxicity (SRB) against non-tumoral L02 cells; format: cell-based, human; conditions: human, L02 cells (non-tumoral human liver cell line); increasing concentrations up to 100 μM; mean ± SD of at least three independent experiments; read-out: Normal Human Cell Lines, CC50, L02
[4] = system: L02 (a human liver cell line); assay: Cytotoxicity (SRB) against non-tumoral L02 cells; format: cell-based; conditions: L02 versus the five tumoral cell lines
[5] = system: human mammary epithelial cell (HMLE); assay: Cytotoxicity (SRB) against non-tumoral HMLE cells; format: cell-based; conditions: HMLE versus the five tumoral cell lines

SMILES	IC50 (HepG2 cells) [µM]	IC50 (A549 cells) [µM]	melting point [°C]	IC50 (SW1990 cells) [µM]	IC50 (MCF-7 cells) [µM]	IC50 (HeLa cells) [µM]	IC50 [2] [µM]	SI (CC50 HMLE/IC50 HepG2) (HepG2 cells)	SI (CC50 L02/IC50 HepG2) (HepG2 cells)	SI (CC50 HMLE/IC50 A549) (A549 cells)	SI (CC50 L02/IC50 A549) (A549 cells)	SI (CC50 HMLE/IC50 SW1990) (SW1990 cells)	SI (CC50 L02/IC50 SW1990) (SW1990 cells)	CC50 at 48 h [1] [µM]	SI (CC50 HMLE/IC50 MCF7) (MCF-7 cells)	SI (CC50 L02/IC50 MCF7) (MCF-7 cells)	SI (CC50 HMLE/IC50 Hela) (HeLa cells)	SI (CC50 L02/IC50 Hela) (HeLa cells)	CC50 at 48 h [3] [µM]	SI between the CC50 in HMLE and IC50 in tumoral cells [5]	further results
COc1cccc(OC)c1/C=C/C(=O)c1ccccc1OCc1ccccc1 [b11, (E)-1-(2-(Benzyloxy>)phenyl)-3-(2,6-dimethoxyphenyl)prop-2-en-1-one]	2.76 ± 0.04	3.63 ± 0.13	94.6 to 97.9	7.43 ± 0.56	4.15 ± 0.2	3.62 ± 0.07	< 10	7.6	13.9	5.8	10.5	2.8	5.2	21 ± 1.26	5.1	9.2	5.8	10.6	38.3 ± 5.63	2–7 fold	
COc1cccc(OC)c1/C=C/C(=O)c1ccccc1F [b31, (E)-1-(2-Fluorophenyl)-3-(2,6-dimethoxyphenyl)prop-2-en-1-one]	18 ± 0.88	27.4 ± 0.67	66.6 to 68.1	> 30	23.5 ± 0.98	23.3 ± 0.42		>5.6	>5.6	>3.6	>3.6			> 100	>4.3	>4.3	>4.3	>4.3	> 100	2–7 fold	
COc1cccc(OC)c1/C=C/C(=O)c1cccc(Cl)c1 [b34, (E)-1-(3-Chlorophenyl)-3-(2,6-dimethoxyphenyl)prop-2-en-1-one]	13.5	16.1	116.5 to 117.2	21.4	22	16.6		0.7	3.5	0.6	2.9	0.4	2.2	9.42 ± 1.21	0.4	2.1	0.6	2.8	46.9 ± 13.9		SI between the CC50 in L02 and IC50 in tumoral cells [4]: more than 2 fold

Continued, in another order:

IC50 (HepG2 cells) [µM]	IC50 (A549 cells) [µM]	melting point [°C]	IC50 (SW1990 cells) [µM]	IC50 (MCF-7 cells) [µM]	IC50 (HeLa cells) [µM]	IC50 [2] [µM]	SMILES	SI (CC50 HMLE/IC50 HepG2) (HepG2 cells)	SI (CC50 L02/IC50 HepG2) (HepG2 cells)	SI (CC50 HMLE/IC50 A549) (A549 cells)	SI (CC50 L02/IC50 A549) (A549 cells)	SI (CC50 HMLE/IC50 SW1990) (SW1990 cells)	SI (CC50 L02/IC50 SW1990) (SW1990 cells)	CC50 at 48 h [1] [µM]	SI (CC50 HMLE/IC50 MCF7) (MCF-7 cells)	SI (CC50 L02/IC50 MCF7) (MCF-7 cells)	SI (CC50 HMLE/IC50 Hela) (HeLa cells)	SI (CC50 L02/IC50 Hela) (HeLa cells)	CC50 at 48 h [3] [µM]	SI between the CC50 in HMLE and IC50 in tumoral cells [5]	further results
4.23 ± 0.09	7.36 ± 0.37	48.8 to 50.4	8.2 ± 0.12	8.56 ± 0.17	8.72 ± 0.07	< 10	CCOc1ccccc1C(=O)/C=C/c1c(OC)cccc1OC [b8, (E)-1-(2-Ethoxyphenyl)-3-(2,6-dimethoxyphenyl)prop-2-en-1-one]	0.2	9.3	0.1	5.4	0.1	4.8	0.83 ± 0.21	0.1	4.6	0.1	4.5	39.6 ± 7.53		SI between the CC50 in L02 and IC50 in tumoral cells [4]: more than 2 fold
0.97 ± 0.04	1.5 ± 0.07	128.7 to 131.2	3.03 ± 0.05	1.79 ± 0.2	1.83 ± 0.08	< 10	COc1cc(C(=O)/C=C/c2c(OC)cccc2OC)ccc1O [b29, (E)-1-(4-Hydroxy-3-methoxyphenyl)-3-(2,6-dimethoxyphenyl)prop-2-en-1-one]	6.5	>103.1	4.2	>66.7	2.1	>33.0	6.31 ± 0.13	3.5	>55.9	3.4	>54.6	> 100	2–7 fold and 2.1–6.5 fold	fold more potent than etoposide (A549 cells; A549 cells, ratio of IC50 values versus etoposide): 11.5 fold
